Measurements from a compilation of properties of binary mixtures (doi:10.1007/s10953-017-0608-9).
Where “and” joins values, the source holds several entries; their conditions need not be identical. Identical values can stand only once.

Test: xn = mol fraction of the nth substance listed
Conditions: 101 kPa

With `CCCCCCCCn1cc[n+](C)c1.[Br-]` + O the electrical conductivity (288.15 K, x1 = 0.0001) was 0.029 S/m and 0.0557 S/m, the electrical conductivity (288.15 K, x1 = 0.0002) was 0.0822 S/m and the viscosity (288.15 K, x1 = 0.0002) was 1.158 mPa·s. The electrical conductivity (298.15 K, x1 = 0.0001) was 0.0353 S/m and 0.0696 S/m, the viscosity (298.15 K, x1 = 0.0001) was 0.896 mPa·s and the electrical conductivity (308.15 K, x1 = 0.0001) was 0.0426 S/m and 0.0846 S/m. The viscosity (308.15 K, x1 = 0.0001) was 0.725 mPa·s and 0.73 mPa·s.
